System: convulsions abdominales (writhings) induites dans le souris par une injection intrapéritonéale d'acide acétique
Assay: Acetic acid writhing test (analgesic activity, Koster and Anderson)
Format: in vivo
Settings: souris, 60 minutes après l'administration; for Frequence writhings: ± déviation standard
Text: L'activité analgésique de l'acétylsalicylate de 2(o-méthoxy-phénoxy)éthanol a été évaluée en comparaison avec celle de l'acide acétylsalicylique sur la base de la fréquence des convulsions abdominales (writhings) induites dans le souris par une injection intrapéritonéale d'acide acétique, suivant la technique décrite par Koster et Anderson (Fed. Proc., volume 18, page 412, 1959). Les résultats de l'élaboration statistique des épreuves sont indiqués dans le suivant Tableau 3, dans lequel la fréquence des convulsions est indiquée comme nombre de convulsions par minute ± la déviation standard, et a été mesurée 60 minutes après l'administration; pour les autres valeurs est valable ce qui a été spécifié en relation avec le Tableau 1.

For COc1ccccc1OCCOC(=O)c1ccccc1OC(C)=O [acétylsalicylate de 2(o-méthoxy-phénoxy)éthanol], the inhibition at 100 mg/kg (1 h, 100 mg/Kg, read-out: % inhibition) was 33%, the inhibition at 200 mg/kg (1 h, 200 mg/Kg, read-out: % inhibition) was 49% and the Frequence writhings (100 mg/Kg) was “**19,5 ± 5,4 convulsions par minute”. The Frequence writhings (200 mg/Kg) was “**14,88 ± 6,8 convulsions par minute”.

From patent EP0070049A1, “Derivative of acetylsalicylic acid having an analgetic, antipyretic, antiphlogistic and bronchosecretolytic activity” (UNIONE CHIMICA MEDICAMENTI- DIFME-S.p.A., priority 1981, dated 1983)
